Laboratory results reported in patent US20260364213A1, “RADIOLABELED COMPOUNDS OF TRIMETHOPRIM AND USES THEREOF” (THE TRUSTEES OF THE UNIVERSITY OF PENNSYLVANIA, priority 2023, published 2026).
Several values for one entry are separate records, joined by “and”; a condition that tells them apart may be missing. Identical values can stand only once. Entries after “also recorded” stand apart in the source; their conditions may differ. Like-named read-outs stand apart in the source and are kept apart here.

How the values were obtained:
[1] = system: I45 and SKOV3 cells; test: Cytotoxicity in wild-type and eDHFR-YFP-expressing I45 and SKOV3 cells; assay type: cell-based, human
Method: After 72 hours of incubation, the surviving fraction of the cells was quantified using CellTiter-Glo (Promega #G9243). See, Makvandi, Molecular cancer therapeutics. […] The assay was performed three times in triplicates. […] See, Lee, Journal of nuclear medicine.

[2] = target: T1, eDHFR (Escherichia coli, UniProt P0ABQ4); conditions: HEK293T-eDHFR-YFP vs HEK 293 WT; 0.037 MBq, 1 hour; 60 min
T1 sequence (P0ABQ4 1-159): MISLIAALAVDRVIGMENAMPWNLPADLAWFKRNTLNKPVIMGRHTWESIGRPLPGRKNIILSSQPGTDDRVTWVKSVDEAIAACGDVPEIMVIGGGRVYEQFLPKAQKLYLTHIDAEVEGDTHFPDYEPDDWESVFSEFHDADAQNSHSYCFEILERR

[3] = target: T2, eDHFR-YFP (Escherichia coli, UniProt P0ABQ4); test: Radioligand binding to eDHFR-YFP expressing cells; parameters: species or system E. coli; conditions: read-out: Kd
T2 sequence (P0ABQ4 1-159): T1 sequence (P0ABQ4 1-159)
Method: Due to the high specific activity of [^211At]At-TMP that limits its working concentration to pM range, [^125I]I-TMP was used for saturation binding studies to determine Bmax.
eDHFR-YFP-positive I45 and SKOV3 cells were plated on 96-well plates (Corning #9102) at the density of 25,000 cells/well and 40,000 cells/well, respectively, in complete growth media 24 hours before the assay. […] After incubation at 37 °C for 90 minutes, the wells were aspirated and washed twice with ice-cold PBS. The radioactivity in each well was measured with a Perkin Elmer Wizard gamma counter. The assay was performed three times in triplicates. […] See, Swillens, Molecular pharmacology. 1995; 47(6):1197-203. The corresponding EC50 values were plotted against the receptor concentration/2 to determine the Kd. See, Hulme, British journal of pharmacology. 2010; 161(6):1219-37. The Bmax values were correlated with the total YFP florescence from the wells, with a correction factor of 2.5 and 2.2 for membrane-bound eDHFR-YFP in I45 and SKOV3, respectively, in order to account for decreased fluorescence per molecule from addition of the membrane localization signal to YFP. See, Wu, Science. 2005; 310(5746):310-4; and Bakholdina, Molecules. 2021; 26(13).
For determination of the Kd of [^211At]At-TMP, the binding assay protocol was repeated in I45 and SKOV3 cells expressing cytoplasmic eDHFR-YFP, using 150 μL of 0.06-60 nM [^125I]I-TMP±10 μM TMP for half of each 96-well plate and 50-260 μL of […] [^211At]At-TMP±10 μM TMP for the remaining half. The Bmax of each plate determined from [^125I]I-TMP binding was divided by the assay volumes used for [^211At]At-TMP to calculate the total receptor concentration ([RT]) in each [^211At]At-TMP well. The ligand depletion (δ) in each [^211At]At-TMP well was obtained by dividing the bound radioactivity by total added radioactivity. The assay was performed four times in triplicates. As derived in Supplemental Methods 1, δ^−1 was plotted against [RT]^−1 to determine the Kd as the slope of the linear best-fit line.
Supplemental Method 1. Measurement of the dissociation constant (Kd) of [^211At]At-TMP binding to eDHFR under non-saturating, ligand-depleting conditions. When [Ligand]<<Kd, ligand depletion (6) at equilibrium is
where [R] is the free receptor concentration and [RT]is the total receptor concentration. Since 6 is non-zero, taking the reciprocal of both sides of the equation yields
[formula] • If a δ^−1 vs. [RT]^−1 graph where y=δ^−1 and x=[RT]^−1 is plot,
Therefore, the slope of the linear best-fit line represents the Kd and the y-intercept is 1.

[4] = system: OVCAR8-eDHFR-Luc cells; test: Kill assay (MTT) in OVCAR8-eDHFR-Luc cells; assay type: cell-based, human; conditions: 18.5 MBq, 1 h; viability to day 12
Method: Following the same uptake protocol till washing after the third wash the cells were counted using cell counter and they were diluted to generate even number of cells/mL. […] We've applied the same blocked conditions used in the uptake assay. […] Then cells will be re-distributed into 96 well plates (2,000 cells/well) with fresh media to monitor cell proliferation by MTT assay on days 1, 3, 7 and 10. A total of 9 wells (3×3) were measured on the plate per sample per time point. To complete the assay cell media was removed and replaced with 50 μL of serum free media and 50 μL of MTT reagent. The plates were covered with tin foil and incubated at 37 °C for 3 hours. The plates were shaken at 200 rpm at 37 °C for 15 min. Using the microplate plate reader, sample absorbance was measured at 590 nm for 600 ms. Controls included [^131I]NaI treated cells and blocking with 10 μM parent TMP (unlabeled). An analogous procedure was used for the OVCAR8-eDHFR-Luc kill assay with different doses (1.85-37 MBq) and treatment times.
To investigate the therapeutic potential of m[^131I]mI-TMP 5b in tumor cell lines, OVCAR8 eDHFR+ cells were exposed to varying doses (ranging from 1.85-37 MBq) of the radiotracer of 5b at different incubation times. Different conditions were employed to assess the selective therapeutic effect of the radio tracer on eDHFR+ cells. To determine the specific killing of eDHFR+ tumor cells, blocked conditions were analyzed. The cell viability of compound 5b-treated cells was also compared with the cells exposed to [^131I]I—Na. Additionally, untreated cells were used as controls. The MTT assay was used to measure the cell viability of the cells under the aforementioned conditions on days 1, 3, 7, and 12.
OVCAR8-eDHFR-Luc+ cells were treated with 1.85 and 18.5 MBq of m[^131I]mI-TMP 5b and [^131I]I—Na, incubated for 1 hour. […] The cell viability of the compound 5b-treated cells was similar to cells under blocked, [^131I]NaI, and no drug conditions. See, FIG. 2A. […] See, FIG. 2B. Based on the results obtained, a continued dose escalation was considered to better understand the therapeutic window. Finally, OVCAR_eDHFR+ cells were tested with 37 MBq dose of m[^131I]mI-TMP.

[5] = In vitro stability in RPMI 1640 medium; assay type: physicochemical; conditions: 37 °C, up to 6 hours, radio-HPLC
Method: The specific activity of [^211At]At-TMP and [^125I]I-TMP was determined by comparison of radioactivity to the area under 288-nm ultraviolet light peak on radio-HPLC. The in vitro stability of [^211At]At-TMP was examined with incubation in Roswell Park Memorial Institute (RPMI) 1640 medium at 37 °C for up to 6 hours, followed by radio-HPLC analysis.

[6] = system: IMR5 cells; test: Cytotoxicity in IMR5 cells with subcellular eDHFR-YFP; assay type: cell-based, human
Method: Using standard cloning procedures and DNA sequence synthesis, the recombinant eDHFR protein was modified in the following ways. First, the eDHFR nucleotide sequence was extended with a yellow fluorescent protein (YFP) domain at the C-terminus to construct a fusion eDHFR-YFP protein. See, Sellmyer, Mol Ther 2020; 28:42-51. Then, one of the following localization domains was added: simian virus 40 nuclear localization signal (NLS) at the N-terminus, human immunodeficiency virus Rev protein nuclear export signal (NES) at the C-terminus, and Saccharolobus solfataricus P2 DNA-binding domain 7d (DNAB) at the N-terminus. See, Kobayashi, Antimicrob Agents Chemother 2006; 50:1118-1119; and Kalichuk, Sci Rep 2016; 6:37274. The resulting library of pUC57 plasmids, each containing one of NLS-eDHFR-YFP, eDHFR-YFP-NES, and DNAB-eDHFR-YFP, were successfully cloned into a lentiviral vector. The lentiviral plasmids were introduced into HEK293T cells for viral production and isolation.
Then, three human cancer cell lines were cultured: HCT116 (colorectal cancer), IMR5 (neuroblastoma), and SKOV3 (ovarian cancer). They were transfected with the three lentiviral constructs for expression of NLS-eDHFR-YFP, eDHFR-YFP-NES, and DNAB-eDHFR-YFP, resulting in nine cell lines in total. Subcellular localization of eDHFR-YFP in the cell lines was verified with fluorescence microscopy.
Cytotoxicity experiments were performed as follows: wild-type IMR5 cells as well as those expressing eDHFR-YFP localized to the DNA, nucleus, and cytoplasm were treated with various concentrations of ^211At-PAB-TMP for 72 hours. The survival fraction for each treatment condition was measured with luminescent cell viability assay.
The resulting survival vs. dose curves were analyzed to determine effective concentrations for 50% reduction in cell viability (EC50). See, FIGS. 16A-16C. […] See, FIGS. 16A-16C. […] 6; 20(7): 1752-1755.

[7] = target: T1, eDHFR; assay type: cell-based; conditions: for affinity for eDHFR binding in cells: HCT116 cells, non-radiolabeled, vs para-benzyl-iodo-TMP; for EC50: read-out: EC50 for eDHFR binding, HCT-116 cells, tsLuc-DD-DHFR, compounds not radiolabeled
[8] = target: T1, eDHFR; test: Differential scanning fluorimetry (thermal shift assay); assay type: binding; conditions: 0.1 mg/mL protein, 10 mM stock compound, 20-95 °C ramp
Method: Purified protein is diluted to 0.1 mg/mL protein in 500 μL in mild buffer, 25 mM HEPES pH=7.5, 200-500 mM NaCl, DTT. 17 μL of the 0.1 mg/mL protein sample is aliquoted into an opaque white 384 well PCR plate. Then 2 μL of stabilizing additive or 1 μL additive and 1 μL of concentrated drug (10 mM TMP or 10 mM cold mI-TMP or vehicle, plus 1 μL of 1×SYPRO Orange dye was added and the total well volume is 20 μL. The plate is sealed with clear optical cover, protect it from light with foil, and let it incubate for 5 minutes. Then the plate is centrifuged at 3,600×g for 2 minutes. The plate is analyzed on RT-PCR machine using a temperature-ramp method that ranges from 20-95 °C.

[9] = Serum stability in FBS; assay type: in vitro ADME; conditions: non-radioactive compound, FBS, 37 °C, 72 h
Method: In vitro serum stability of was performed by adding the [^131I]mI-TMP (50 μL, 1.85 MBq) to fetal bovine serum (500 μL). The mixture was then incubated in a ThermoMixer (800 rpm) at 37 °C, and deiodination was analyzed by radio-TLC (10% NH40Ac:MeOH=3:7) at 0, 24, and 72 h. In this condition, free I-131 moved to solvent front whereas intact [^131I]I-TMP remained at the origin.

## COc1cc(Cc2cnc(N)nc2N)cc(OC)c1OC [TMP, trimethoprim]
[1]; 40 μM, all cell types
  cytotoxicity at the lowest TMP concentration: non-toxic
[1]; 72 h
  cytotoxicity from non-radiolabeled TMP in cells expressing membrane-bound eDHFR-YFP: higher cytotoxicity

## COc1cc(Cc2cnc(N)nc2N)cc([125I])c1OC [[^125I]mI-TMP, 5-(3-iodo-4,5-dimethoxybenzyl)pyrimidine-2,4-diamine]
[2]
  uptake of the radiotracer in eDHFR+ cells relative to WT cells: ~ 50 fold and ~ 30 fold
[3]; I45 cells
  Kd: 0.65 ± 0.11 nM
[3]; SKOV3 cells
  Kd: 0.13 ± 0.17 nM

## [131I-].[Na+] [[^131I]I—Na, reference compound]
[4]
  cytotoxic effect / cell viability: showed viability and significant growth

## COc1cc(Cc2cnc(N)nc2N)cc([211At])c1OC [[^211At]At-TMP]
[5]
  in vitro stability in aqueous media: stability of [^211At]TMP in aqueous media for up to 6 hours

## COc1cc(Cc2cnc(N)nc2N)cc(OC)c1OCc1ccc([211At])cc1 [^211At-PAB-TMP, ^211At-para-astatobenzyl-trimethoprim]
[6]; IMR5 cells, 72 hours, luminescent viability
  cytotoxicity by eDHFR-YFP subcellular location: Higher cytotoxicity was seen with increasing proximity to DNA, resulting in significantly lower EC50 values; also recorded: highest in the IMR5 cells expressing DNA-bound eDHFR-YFP, followed by nuclear and cytoplasmic eDHFR-YFP

## O=C1NCCn2c(-c3ccc([211At])cc3)nc3cccc1c32 [^211At-PTT, reference compound]
[6]; positive control
  difference in cytotoxicity among the eDHFR IMR5 cells: no difference in cellular toxicity; also recorded: did not result in difference in cytotoxicity among the IMR5 cells

## COc1cccc2c1C(=O)c1c(O)c3c(c(O)c1C2=O)C[C@@](O)(C(=O)CO)C[C@@H]3O[C@H]1C[C@H](N)[C@H](O)[C@H](C)O1 [doxorubicin, reference compound]
[1]; 72 h, 10 nM-1 μM
  cytotoxicity of doxorubicin, wild-type vs eDHFR-YFP-expressing cells: comparable cytotoxicity; also recorded: comparable chemosensitivity

## COc1cc(Cc2cnc(N)nc2N)cc(Br)c1OC [mBr-TMP]
[7]
  affinity for eDHFR binding in cells: higher affinity for eDHFR binding in cells than the para-benzyl-iodo-TMP
  EC50: 5 nM

## COc1cc(Cc2cnc(N)nc2N)cc(I)c1OC [mI-TMP, 5-(3-iodo-4,5-dimethoxybenzyl)pyrimidine-2,4-diamine]
[7]
  affinity for eDHFR binding in cells: higher affinity for eDHFR binding in cells than the para-benzyl-iodo-TMP
  EC50: 5 nM
[8]
  stabilization of eDHFR in thermal shift assay (DSF): stabilizes eDHFR as TMP
[8]; listed as TMP-I (3b)
  stabilization of eDHFR in thermal shift assay (DSF): strongly stabilizes eDHFR, similar to TMP
[9]
  stability in FBS by LCMS: confirmed the stability of TMP-I (3a) in FBS

## ^211At-para-astatobenzyl-trimethoprim [^211At-PAB-TMP]
[6]
  killing of eDHFR expressing neuroblastoma cells: enhanced killing of eDHFR expressing neuroblastoma cells
